pIC50: −log10 of the molar value.
Columns and labels:
[1] = tested on: platelet aggregation induced by 2.5 nm of PAF; assay: Inhibition of PAF-induced platelet aggregation on platelet rich plasma (Born method); type: cell-based, New Zealand rabbits; conditions: Oryctolagus cuniculus; rabbit platelet rich plasma, 2.5 nm PAF
Description: 1. --Inhibition of the platelets aggregation on New Zealand Rabbits
The experimentation was conducted on platelets with plasma of New Zealand rabbits.
Blood samples were taken from auricular artery and placed in a citrate buffer (3.8%; pH 7.4); blood was further centrifugated for 15 mn at 1200 rpm.
The tested sample was prepared in DMSO, then poured on platelets rich plasma for 1 mn, then a dose of 2.5 nm of PAF was added.
The determination is made on a Cronolog Coultronics apparatus which determines the transmission percentage corresponding to the maximum height of the peak before the desaggregation.
The percentage of variation of the inhibition with respect to the transmission percentage is calculated (control: pure DMSO).
This method was described in detail in LABORATORY INVESTIGATIONS, Vol. 41, No. 3, p. 275, 1979, JEAN-PIERRE CAZENAVE, Dr. MED., JACQUES BENVENISTE, DR. MED., AND J. FRASER MUSTARD, M. D., "Aggregation of rabbits platelets by platelet-activating factor is independent of the release reaction and the arachidonate pathway and inhibited by membrane-active drugs".

PAF receptors = target: T1, PAF receptors (Oryctolagus cuniculus, UniProt G1TEI7); assay: Binding studies on a rabbit platelet homogenate (3[H]-PAF)
T1 construct: from tissue; host or cells: rabbit platelet homogenate
Text: This activity was evidenced by binding studies on a rabbit platelet homogenate. In this preparation indeed, those derivatives inhibit the specific bond of ^3 [H]--PAF, whereas they are without significative effect on the binding of the appropriate ligands on tissue homogenates rich in benzodiazepinic (central and peripheral), histaminergic (H1 and H2) and adrenergic (α1, α2, β2, β3) receptors, to angiotensine II or to ANF. Their affinity is therefore characteristic of PAF receptors.

T1 sequence (G1TEI7 1-342): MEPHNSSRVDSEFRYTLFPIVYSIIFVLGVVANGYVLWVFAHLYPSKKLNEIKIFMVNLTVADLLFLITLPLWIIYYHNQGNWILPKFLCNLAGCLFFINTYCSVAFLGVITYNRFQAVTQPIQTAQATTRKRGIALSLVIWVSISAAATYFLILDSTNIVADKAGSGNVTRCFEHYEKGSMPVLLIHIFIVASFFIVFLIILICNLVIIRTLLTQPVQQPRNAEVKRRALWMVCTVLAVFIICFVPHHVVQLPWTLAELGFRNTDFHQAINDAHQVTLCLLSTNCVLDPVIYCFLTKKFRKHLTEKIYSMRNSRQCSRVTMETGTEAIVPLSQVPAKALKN

pIC50 [1]	pIC50 (PAF receptors)	Compound
6.92	7.21	CCCCCCCCC1CN(C(=O)c2cc(OC)c(OC)c(OC)c2)CCN1C(=O)c1cc(OC)c(OC)c(OC)c1 (centres unmarked) [Example 1, N,N'-bis-(3',4',5'-trimethoxybenzoyl)-2-n-octyl piperazine]
6.15	6.60	COc1cc(C(=O)N2CCN(C(=O)c3cc(OC)c(OC)c(OC)c3)C(CCC(C)(C)C)C2)cc(OC)c1OC (centres unmarked) [Example 2, N,N'-bis-(3',4',5'-trimethoxybenzoyl) 2-(3",3"-dimethyl) -butyl piperazine]
6.25	6.17	COc1cc(C(=O)N2CCN(C(=O)c3cc(OC)c(OC)c(OC)c3)C(C)C2)cc(OC)c1OC (centres unmarked) [Example 3, N,N'-bis-(3',4',5'-trimethoxybenzoyl) 2-methyl piperazine]
6.72	7.49	CCCCCC1CN(C(=O)c2cc(OC)c(OC)c(OC)c2)CCN1C(=O)c1cc(OC)c(OC)c(OC)c1 (centres unmarked) [Example 4, N,N'-bis-(3',4',5'-trimethoxybenzoyl) 2-n-pentyl piperazine]
5.24	5.20	CCCCCCCCCCCCCCCC1CN(C(=O)c2cc(OC)c(OC)c(OC)c2)CCN1C(=O)c1cc(OC)c(OC)c(OC)c1 (centres unmarked) [Example 5, N,N'-bis-(3',4',5'-trimethoxybenzoyl) 2-n-pentadecyl piperazine]
5.62	5.33	CCCCCCCCCCCCCCCCCCCC1CN(C(=O)c2cc(OC)c(OC)c(OC)c2)CCN1C(=O)c1cc(OC)c(OC)c(OC)c1 (centres unmarked) [Example 6, N,N'-bis-(3',4',5'-trimethoxybenzoyl) 2-n-nonadecyl piperazine]
6.37	6.13	COc1cc(C(=O)N2CCN(C(=O)c3cc(OC)c(OC)c(OC)c3)C(CCC3CCCCC3)C2)cc(OC)c1OC (centres unmarked) [Example 7, N,N'-bis-(3',4',5'-trimethoxybenzoyl)-2-n-(cyclohexylethyl) piperazine]
7.15	7.42	COc1cc(CCC2CN(C(=O)c3cc(OC)c(OC)c(OC)c3)CCN2C(=O)c2cc(OC)c(OC)c(OC)c2)cc(OC)c1OC (centres unmarked) [Example 8, N,N'-bis-(3',4',5'-trimethoxybenzoyl)-2-n-(3,4,5-(trimethoxy)phenethyl) piperazine]
6.39	6.14	COc1cc(C(=O)N2CCN(C(=O)c3cc(OC)c(OC)c(OC)c3)C(Cc3ccccc3)C2)cc(OC)c1OC (centres unmarked) [Example 9, N,N'-bis-(3',4',5'-trimethoxybenzoyl)-2-n-(benzyl) piperazine]
5.27	5.39	COc1cc(C(=O)N2CCN(C(=O)c3cc(OC)c(OC)c(OC)c3)C(CCc3ccccc3)C2)cc(OC)c1OC (centres unmarked) [Example 10, N,N'-bis-(3',4',5'-trimethoxybenzoyl)-2-n-(phenethyl) piperazine]
7.96	7.51	COc1cc(C(=O)N2CCN(C(=O)c3cc(OC)c(OC)c(OC)c3)C(CCCc3ccccc3)C2)cc(OC)c1OC (centres unmarked) [Example 11, N,N'-bis-(3',4',5'-trimethoxybenzoyl)-2-n-(phenyl-n-propyl) piperazine]
7.21	7.22	COc1ccc(CCC2CN(C(=O)c3cc(OC)c(OC)c(OC)c3)CCN2C(=O)c2cc(OC)c(OC)c(OC)c2)cc1 (centres unmarked) [Example 12, N,N'-bis-(3',4',5'-trimethoxybenzoyl)-2-n-(p-(methoxy)phenethyl) piperazine]
6.46	6.85	COc1cc(C(=O)N2CCN(C(=O)c3cc(OC)c(OC)c(OC)c3)C(CCCc3ccc(C)cc3)C2)cc(OC)c1OC (centres unmarked) [Example 13, N,N'-bis-(3',4',5'-trimethoxybenzoyl)-2-n-(p-(methyl)phenylpropyl) piperazine]
6.77	6.35	COc1cc(C(=O)N2CCN(C(=O)c3cc(OC)c(OC)c(OC)c3)C(CCc3ccc(Cl)cc3)C2)cc(OC)c1OC (centres unmarked) [Example 14, N,N'-bis-(3',4',5'-trimethoxybenzoyl)-2-n-(p-(chloro)phenethyl) piperazine]
6.43	6.17	COc1cc(C(=O)N2CCN(C(=O)c3cc(OC)c(OC)c(OC)c3)C(CCc3cccc(Cl)c3Cl)C2)cc(OC)c1OC (centres unmarked) [Example 15, N,N'-bis-(3',4',5,-trimethoxybenzoyl)-2-n-(2,3-(dichloro)phenethyl) piperazine]
6.54	6.28	C=CCc1ccc(CCC2CN(C(=O)c3cc(OC)c(OC)c(OC)c3)CCN2C(=O)c2cc(OC)c(OC)c(OC)c2)cc1 (centres unmarked) [Example 16, N,N'-bis-(3',4',5'-trimethoxybenzoyl)-2-n-(p-(allyl)phenethyl) piperazine]
